Laboratory results reported in ChEMBL document CHEMBL3124838, “Discovery of 6-aryl-azabenzimidazoles that inhibit the TBK1/IKK-ε kinases” (Bioorg Med Chem Lett, 2014).

Columns and labels:
[1] = biological target: Tyrosine-protein kinase JAK2 (Homo sapiens) (UniProt O60674); test: Inhibition of human JAK2 assessed as residual activity at 1 uM relative to control
[2] = biological target: T1, cGMP-dependent protein kinase 1 (Homo sapiens) (UniProt Q13976); test: Inhibition of human PKG1alpha assessed as residual activity at 1 uM relative to control
T1 sequence (whole entry): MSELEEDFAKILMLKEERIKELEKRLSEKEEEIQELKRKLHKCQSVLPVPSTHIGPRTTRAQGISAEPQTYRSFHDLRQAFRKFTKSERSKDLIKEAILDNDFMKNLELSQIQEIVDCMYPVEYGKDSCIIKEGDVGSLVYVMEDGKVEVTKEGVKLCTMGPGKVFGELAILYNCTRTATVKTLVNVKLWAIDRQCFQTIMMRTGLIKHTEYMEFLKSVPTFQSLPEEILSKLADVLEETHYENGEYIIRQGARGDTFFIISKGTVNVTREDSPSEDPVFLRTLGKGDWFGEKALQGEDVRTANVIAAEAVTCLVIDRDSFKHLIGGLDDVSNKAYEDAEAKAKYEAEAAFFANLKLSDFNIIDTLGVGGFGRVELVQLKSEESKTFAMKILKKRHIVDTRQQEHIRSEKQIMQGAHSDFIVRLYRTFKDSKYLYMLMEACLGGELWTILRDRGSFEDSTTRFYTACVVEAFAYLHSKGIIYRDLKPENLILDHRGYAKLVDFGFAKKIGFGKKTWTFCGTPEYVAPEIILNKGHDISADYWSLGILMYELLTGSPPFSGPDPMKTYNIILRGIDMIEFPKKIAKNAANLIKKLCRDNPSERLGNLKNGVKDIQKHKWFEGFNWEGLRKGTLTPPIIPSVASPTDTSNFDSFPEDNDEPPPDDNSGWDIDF

[3] = biological target: Rho-associated protein kinase 1 (Homo sapiens) (UniProt Q13464); test: Inhibition of human ROCK-1 assessed as residual activity at 1 uM relative to control
Rho-associated protein kinase 1 (Homo sapiens), sequence (Q13464 2-1354 limits assumed): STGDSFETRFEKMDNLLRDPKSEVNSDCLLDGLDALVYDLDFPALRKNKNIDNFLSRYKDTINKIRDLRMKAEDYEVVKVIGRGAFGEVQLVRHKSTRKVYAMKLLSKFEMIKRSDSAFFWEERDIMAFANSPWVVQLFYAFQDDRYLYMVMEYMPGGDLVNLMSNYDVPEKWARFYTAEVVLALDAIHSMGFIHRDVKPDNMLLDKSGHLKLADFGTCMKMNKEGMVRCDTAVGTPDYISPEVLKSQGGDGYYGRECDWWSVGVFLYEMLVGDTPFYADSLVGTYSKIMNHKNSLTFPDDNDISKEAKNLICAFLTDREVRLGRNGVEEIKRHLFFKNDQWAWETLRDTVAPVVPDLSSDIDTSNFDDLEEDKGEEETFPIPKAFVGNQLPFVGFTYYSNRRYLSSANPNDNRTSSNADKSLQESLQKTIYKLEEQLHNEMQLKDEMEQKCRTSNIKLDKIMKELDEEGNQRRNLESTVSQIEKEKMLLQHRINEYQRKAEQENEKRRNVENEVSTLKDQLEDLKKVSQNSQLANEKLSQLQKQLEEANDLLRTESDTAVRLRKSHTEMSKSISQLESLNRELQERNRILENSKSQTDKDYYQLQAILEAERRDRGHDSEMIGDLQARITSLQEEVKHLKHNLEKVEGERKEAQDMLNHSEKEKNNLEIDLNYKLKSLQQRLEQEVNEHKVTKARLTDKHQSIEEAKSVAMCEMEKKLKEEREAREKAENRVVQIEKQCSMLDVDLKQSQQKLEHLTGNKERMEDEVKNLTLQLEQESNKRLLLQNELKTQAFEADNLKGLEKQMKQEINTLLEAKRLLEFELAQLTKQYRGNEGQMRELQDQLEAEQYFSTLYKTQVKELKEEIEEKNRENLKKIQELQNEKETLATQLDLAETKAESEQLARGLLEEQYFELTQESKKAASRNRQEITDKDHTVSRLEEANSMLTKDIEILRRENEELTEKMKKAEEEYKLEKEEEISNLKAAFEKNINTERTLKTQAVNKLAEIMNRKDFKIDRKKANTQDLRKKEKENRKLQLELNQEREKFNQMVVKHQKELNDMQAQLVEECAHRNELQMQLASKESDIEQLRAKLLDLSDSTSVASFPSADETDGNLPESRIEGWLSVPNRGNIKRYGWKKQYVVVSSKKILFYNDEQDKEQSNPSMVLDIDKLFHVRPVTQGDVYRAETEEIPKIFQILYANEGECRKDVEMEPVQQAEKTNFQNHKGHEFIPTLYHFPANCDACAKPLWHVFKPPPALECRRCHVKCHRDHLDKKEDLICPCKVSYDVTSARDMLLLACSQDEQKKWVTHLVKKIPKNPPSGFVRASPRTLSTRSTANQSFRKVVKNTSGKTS

[4] = biological target: T2, Inhibitor of nuclear factor kappa-B kinase subunit beta (Homo sapiens) (UniProt O14920); test: Inhibition of human IKKbeta assessed as residual activity at 1 uM relative to control
T2 sequence (whole entry): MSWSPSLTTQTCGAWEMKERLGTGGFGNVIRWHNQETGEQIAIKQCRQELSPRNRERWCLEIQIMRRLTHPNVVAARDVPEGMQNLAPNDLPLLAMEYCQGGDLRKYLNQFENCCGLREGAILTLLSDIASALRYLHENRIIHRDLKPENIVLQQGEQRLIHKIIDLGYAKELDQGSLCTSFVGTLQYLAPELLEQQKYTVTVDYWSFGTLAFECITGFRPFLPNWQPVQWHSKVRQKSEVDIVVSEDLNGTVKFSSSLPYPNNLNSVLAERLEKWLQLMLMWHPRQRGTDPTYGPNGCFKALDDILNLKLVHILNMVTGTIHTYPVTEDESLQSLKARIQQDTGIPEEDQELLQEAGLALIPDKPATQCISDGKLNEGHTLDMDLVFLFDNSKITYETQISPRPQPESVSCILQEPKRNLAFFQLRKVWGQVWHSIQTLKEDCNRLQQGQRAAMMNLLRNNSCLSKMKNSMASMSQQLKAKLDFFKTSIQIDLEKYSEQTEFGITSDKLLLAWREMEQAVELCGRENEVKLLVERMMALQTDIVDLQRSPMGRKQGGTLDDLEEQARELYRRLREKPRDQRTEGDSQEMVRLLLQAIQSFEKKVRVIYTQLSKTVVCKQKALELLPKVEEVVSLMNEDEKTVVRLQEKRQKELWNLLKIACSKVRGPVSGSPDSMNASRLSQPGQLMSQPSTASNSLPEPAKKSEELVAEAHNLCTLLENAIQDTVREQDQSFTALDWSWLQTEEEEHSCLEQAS

[5] = biological target: T3, Aurora kinase C (Homo sapiens) (UniProt Q9UQB9); test: Inhibition of human Aurora-C assessed as residual activity at 1 uM relative to control
T3 sequence (whole entry): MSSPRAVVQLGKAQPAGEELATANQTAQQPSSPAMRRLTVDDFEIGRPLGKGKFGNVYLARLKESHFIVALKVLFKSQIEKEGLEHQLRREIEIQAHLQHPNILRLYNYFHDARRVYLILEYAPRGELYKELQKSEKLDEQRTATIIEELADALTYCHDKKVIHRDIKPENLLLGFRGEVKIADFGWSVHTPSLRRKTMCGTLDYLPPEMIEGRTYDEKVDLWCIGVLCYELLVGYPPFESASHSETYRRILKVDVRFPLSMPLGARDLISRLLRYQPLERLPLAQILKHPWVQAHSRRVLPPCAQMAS

[6] = biological target: Ephrin type-A receptor 5 (Homo sapiens) (UniProt P54756); test: Inhibition of human EPHA5 assessed as residual activity at 1 uM relative to control
Ephrin type-A receptor 5 (Homo sapiens), sequence (P54756 whole entry, the tested form may be a part): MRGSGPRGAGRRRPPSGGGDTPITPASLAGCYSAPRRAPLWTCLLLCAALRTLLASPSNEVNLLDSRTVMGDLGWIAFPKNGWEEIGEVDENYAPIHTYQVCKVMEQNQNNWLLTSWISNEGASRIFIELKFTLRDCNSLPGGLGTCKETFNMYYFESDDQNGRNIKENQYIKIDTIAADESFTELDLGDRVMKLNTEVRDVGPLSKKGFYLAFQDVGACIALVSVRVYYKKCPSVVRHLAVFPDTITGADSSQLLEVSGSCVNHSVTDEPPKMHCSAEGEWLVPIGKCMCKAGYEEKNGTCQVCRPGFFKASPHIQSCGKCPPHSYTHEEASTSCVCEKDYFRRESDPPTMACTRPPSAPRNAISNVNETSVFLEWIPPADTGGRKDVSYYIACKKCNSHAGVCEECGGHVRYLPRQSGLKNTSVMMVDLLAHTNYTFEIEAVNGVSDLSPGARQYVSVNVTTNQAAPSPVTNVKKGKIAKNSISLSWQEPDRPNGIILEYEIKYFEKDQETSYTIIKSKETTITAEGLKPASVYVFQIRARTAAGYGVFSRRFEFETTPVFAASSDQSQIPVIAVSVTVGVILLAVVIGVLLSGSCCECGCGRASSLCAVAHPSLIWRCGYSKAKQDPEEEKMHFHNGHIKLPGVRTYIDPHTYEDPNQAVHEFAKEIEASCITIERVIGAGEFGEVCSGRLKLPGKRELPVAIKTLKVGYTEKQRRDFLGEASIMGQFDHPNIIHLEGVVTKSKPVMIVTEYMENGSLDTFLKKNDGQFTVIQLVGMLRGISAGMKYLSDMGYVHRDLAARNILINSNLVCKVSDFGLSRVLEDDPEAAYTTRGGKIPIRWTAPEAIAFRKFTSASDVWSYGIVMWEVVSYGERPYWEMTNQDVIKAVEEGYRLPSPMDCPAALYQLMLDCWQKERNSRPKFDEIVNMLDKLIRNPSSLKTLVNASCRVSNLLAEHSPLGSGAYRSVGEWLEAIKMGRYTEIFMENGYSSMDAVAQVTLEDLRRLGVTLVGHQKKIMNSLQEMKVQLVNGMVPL

[7] = biological target: T4, Discoidin domain-containing receptor 2 (Homo sapiens) (UniProt Q16832); test: Inhibition of human DDR2 assessed as residual activity at 1 uM relative to control
T4 sequence (whole entry): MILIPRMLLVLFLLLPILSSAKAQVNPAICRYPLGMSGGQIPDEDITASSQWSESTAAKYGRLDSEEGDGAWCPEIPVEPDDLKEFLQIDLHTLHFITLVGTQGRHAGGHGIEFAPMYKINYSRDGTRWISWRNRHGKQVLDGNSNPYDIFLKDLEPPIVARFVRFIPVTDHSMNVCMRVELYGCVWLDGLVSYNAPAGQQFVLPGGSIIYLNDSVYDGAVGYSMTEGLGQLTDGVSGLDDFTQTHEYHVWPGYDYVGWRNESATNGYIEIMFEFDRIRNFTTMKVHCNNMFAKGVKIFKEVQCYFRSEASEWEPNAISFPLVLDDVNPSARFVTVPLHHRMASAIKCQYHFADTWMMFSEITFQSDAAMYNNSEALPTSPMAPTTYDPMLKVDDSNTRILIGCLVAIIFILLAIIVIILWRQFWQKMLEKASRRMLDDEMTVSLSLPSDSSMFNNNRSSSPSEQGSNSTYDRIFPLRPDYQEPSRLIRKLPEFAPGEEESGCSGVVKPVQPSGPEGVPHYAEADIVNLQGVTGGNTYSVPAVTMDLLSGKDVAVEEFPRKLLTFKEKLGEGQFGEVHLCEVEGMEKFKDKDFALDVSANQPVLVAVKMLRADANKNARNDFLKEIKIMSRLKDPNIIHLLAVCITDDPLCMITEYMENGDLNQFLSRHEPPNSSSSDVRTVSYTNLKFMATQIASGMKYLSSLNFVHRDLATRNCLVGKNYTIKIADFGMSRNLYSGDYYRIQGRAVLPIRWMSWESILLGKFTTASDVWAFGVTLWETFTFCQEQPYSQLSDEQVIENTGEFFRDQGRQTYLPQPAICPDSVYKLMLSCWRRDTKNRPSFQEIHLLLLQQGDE

Tyrosine-protein kinase JAK2 (Homo sapiens), sequence (O60674 whole entry): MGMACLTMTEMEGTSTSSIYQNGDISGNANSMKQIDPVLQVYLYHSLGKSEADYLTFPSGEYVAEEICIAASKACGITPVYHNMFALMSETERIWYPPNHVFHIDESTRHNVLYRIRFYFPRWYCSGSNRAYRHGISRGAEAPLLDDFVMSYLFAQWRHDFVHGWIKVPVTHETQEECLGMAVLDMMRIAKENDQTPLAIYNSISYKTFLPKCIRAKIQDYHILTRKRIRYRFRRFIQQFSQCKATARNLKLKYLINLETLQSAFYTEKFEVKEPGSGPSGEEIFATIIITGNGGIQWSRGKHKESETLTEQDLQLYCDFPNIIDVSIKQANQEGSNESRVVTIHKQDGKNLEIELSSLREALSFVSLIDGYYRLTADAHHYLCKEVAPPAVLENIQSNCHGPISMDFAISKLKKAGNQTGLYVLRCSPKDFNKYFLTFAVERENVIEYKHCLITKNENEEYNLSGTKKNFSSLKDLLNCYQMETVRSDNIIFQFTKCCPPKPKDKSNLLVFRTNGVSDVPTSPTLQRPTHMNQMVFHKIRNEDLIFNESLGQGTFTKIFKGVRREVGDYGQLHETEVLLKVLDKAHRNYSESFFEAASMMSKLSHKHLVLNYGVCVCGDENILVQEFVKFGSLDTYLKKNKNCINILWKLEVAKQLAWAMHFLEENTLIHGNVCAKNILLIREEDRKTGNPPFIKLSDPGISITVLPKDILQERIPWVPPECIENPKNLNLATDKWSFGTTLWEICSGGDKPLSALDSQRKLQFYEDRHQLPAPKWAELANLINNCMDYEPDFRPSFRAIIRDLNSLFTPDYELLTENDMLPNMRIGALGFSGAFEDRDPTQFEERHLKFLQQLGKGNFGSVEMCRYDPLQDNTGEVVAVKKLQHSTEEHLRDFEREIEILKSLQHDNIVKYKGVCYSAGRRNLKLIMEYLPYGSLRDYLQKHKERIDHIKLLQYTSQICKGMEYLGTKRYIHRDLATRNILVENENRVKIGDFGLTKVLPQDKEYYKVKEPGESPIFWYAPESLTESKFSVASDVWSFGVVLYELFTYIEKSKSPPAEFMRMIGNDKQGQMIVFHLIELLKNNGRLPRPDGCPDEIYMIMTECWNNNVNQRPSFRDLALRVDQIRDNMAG

Row | Structure (SMILES) | Activity [1] | Activity [2] | Activity [3] | Activity [4] | Activity [5] | Activity [6] | Activity [7]
1 | COc1ccc(-c2nc3cc(-c4csc(C(=O)NCCC(C)C)c4)cnc3[nH]2)cc1 | 100% | 67% | 98% | 95% | 77% | 76% | 101%
2 | COc1ccc(-c2nc3cc(-c4csc(C(=O)NCC(C)(C)C)c4)cnc3[nH]2)cc1 | 105% | 68% | 104% | 99% | 76% | 77% | 100%
3 | COc1ccc(-c2nc3cc(-c4csc(C(=O)NCC(C)C)c4)cnc3[nH]2)cc1 | 108% | 69% | 113% | 95% | 76% | 72% | 101%
